The record followed here is US20200223826A1, “Glucose-6-Phosphate Dehydrogenase (G6PD)-Modulating Agents And Methods Of Treating G6PD Deficiency” (The Board of Trustees of the Leland Stanford Junior …, priority 2017, published 2020).

In one assay the target is T1, Canton G6PD (Homo sapiens, UniProt P11413, R459L).
T1 construct: His (pET-28a) (N, cleaved yes); made in house; host or cells: E. coli C43 (DE3)
Briefly: Canton G6PD enzyme activity, diaphorase-coupled assay. The format is biochemical. As for the experimental part: Enzyme activity was measured by monitoring NADPH production, which was coupled with diaphorase converting resazurin to fluorescent resorufin (excitation at 565 nm and emission at 590 nm); fluorescent signal was thus proportional to G6PD activity. Assays were performed at 25° C. and run for 5 minutes in buffer containing 50 mM Tris (pH 7.4), 0.5 mM EDTA, 3.3 mM MgCl2, 1 U/ml diaphorase, 0.1 mM resazurin. 10 ng of recombinant enzymes or 10 μg of cell lysates was used for the assay with 10 μM NADP^+ (Sigma) as cofactor and 100 μM G6P (Sigma) as substrate. Steady-state kinetic parameters were obtained by varying concentrations of NADP^+ (0-10 μM) with a constant concentration of G6P (100 μM) and similarly for G6P (0-100 μM) with a constant concentration of NADP^+ (10 μM) with 10 ng of recombinant enzymes. Data analysis was performed using GraphPad Prism software v.6 (GraphPad Software, La Jolla, Calif. USA). Kinetic parameters were obtained by fitting the data to the Michaelis-Menten equation.
The diaphorase-coupled enzyme assay as described above was used to screen a library of compounds for small molecule activators. The compounds were added to Canton G6PD enzyme reaction mixture at a final concentration of 16.67 μM using Caliper Life Sciences Staccato system with a Twister II robot and a Sciclone ALH3000 (Caliper Life Sciences, Alameda, Calif. USA) integrated with a V&P Scientific pin tool, which was followed by incubation for 3 hours. Addition of G6P then initiated the reaction, which was run for 2.5 minutes. The fluorescent signals were recorded 4 times during the run using Molecular Devices AnalystGT (Molecular Devices, Sunnyvale, Calif. USA). Any compounds showing 30% activation of the enzyme were rescreened in a dose-dependent manner (0-30 μM, duplicate) to identify potential hits.
Based on preliminary results with compound AG1, a variety of compounds of interest were prepared and assessed in G6PD enzyme activation assays, according to the methods described herein.

Assay [1] has as its target T2, Canton G6PD in SH-SY5Y cells (Homo sapiens, UniProt P11413, R459L).
T2 construct: expressed in transfected cells; host or cells: SH-SY5Y neuroblastoma cells
Briefly: Stability of Canton G6PD in SH-SY5Y cells. The class given is cell-based. Here is the method:
Prior to the cellular-based assays using SH-SH5Y cells, duration of overexpression of WT G6PD and Canton variant was examined by transfecting the cells seeded in a 12-well plate. The genes encoding human WT G6PD and Canton variant were first PCR-amplified, which was then inserted into pcDNA 3.1/myc-His C (ThermoFisher Scientific) using HindIII and XhoI. 0.5 μg of cDNA and 1.5 μg of lipofectamine (Invitrogen) were diluted in 50 μL of Opti-MEM medium respectively and incubated for 5 minutes. The diluted DNA was combined with diluted lipofectamine, which was followed by incubation for 20 minutes prior to the addition to cells.
The transfected cells were collected at different time points (up to 72 hours) and the overexpressed G6PD levels were examined by Western blot. The transfection was carried out in serum-starved cells. Once the duration of expression was confirmed, other cellular-based assays were performed.
50,000 cells (SH-SH5Y cells or fibroblast cells) or 100,000 cells (lymphocytes) were seeded in a 12-well plate and incubated overnight. The cells were subjected to serum starvation (50-75%) for 48 hours and treated with 50 μg/ml of cycloheximide at different time points (0-48 hours). The cells were treated with the compound (1 μM) for 48 hours together with cycloheximide. […]

For the next assay, the system named is SH-SY5Y cells. Briefly: Cell viability assay, SH-SY5Y cells, with and without G6PD siRNA knockdown. The format is cell-based, human. Here is the method: Cell viability was measured using a Cell-Counting Kit-8 (CCK-8, Dojindo), utilizing WST-8 [2-(2-methoxy-4-nitrophenyl)-3-(4-nitrophenyl)-5-(2,4-disulfophenyl)-2H-tetrazolium monosodium salt, according to the manufacturer's instructions. Cells were subjected to serum starvation for 48 hours before measurement. Cells in 100 μL of medium per well were treated with 10 μL of CCK-8 solution and incubated for 2 hours at 37° C. The absorbance was read at 450 nm. Viability of lymphocytes was measured by staining with a 0.4% solution of trypan blue in buffered isotonic salt solution (pH 7.2). The viability was calculated as the number of viable cells (non-stained by the dye) divided by the total number of cells within the grids on the hemacytometer. Cells were treated with 1 μM of the compound 24 hours before the measurement.
Endogenous G6PD was knocked down in each cell line as follows; 2 pmol of siRNA G6PD (Santa Cruz Biotechnology) and 0.5 μg lipofectamine (Invitrogen) were diluted in 10 μL of Opti-MEM medium respectively and incubated for 5 minutes. The diluted siRNA was combined with diluted lipofectamine, which was followed by additional incubation for 20 minutes prior to the addition to cells in a 96-well plate.

Each structure is given as a SMILES string.

T1 sequence (P11413 whole entry R459L): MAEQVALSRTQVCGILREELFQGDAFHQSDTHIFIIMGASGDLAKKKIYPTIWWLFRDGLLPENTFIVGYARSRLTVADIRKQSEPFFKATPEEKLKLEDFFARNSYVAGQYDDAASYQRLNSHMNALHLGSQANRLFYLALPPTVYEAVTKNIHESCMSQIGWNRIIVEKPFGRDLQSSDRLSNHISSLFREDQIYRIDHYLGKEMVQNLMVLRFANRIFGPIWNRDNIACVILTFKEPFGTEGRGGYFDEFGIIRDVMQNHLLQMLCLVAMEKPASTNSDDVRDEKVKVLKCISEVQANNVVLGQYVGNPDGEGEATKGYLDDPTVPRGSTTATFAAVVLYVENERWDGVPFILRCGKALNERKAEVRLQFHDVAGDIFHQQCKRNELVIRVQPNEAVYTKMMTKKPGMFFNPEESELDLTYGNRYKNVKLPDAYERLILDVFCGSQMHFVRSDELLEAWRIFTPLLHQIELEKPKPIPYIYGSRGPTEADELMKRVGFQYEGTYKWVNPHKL
T2 sequence (P11413 whole entry R459L): as above

The term EC50 denotes the midpoint of the concentration-response curve. For `SCCNCCc1c[nH]c2ccccc12` [AG1, 2-[2-(1H-indol-3-yl)ethylamino]ethanethiol], on Canton G6PD (100 μM of AG1), the “increase of the activity of Canton G6PD enzyme” value was 70%. Further, at Canton G6PD (Canton G6PD in presence of AG1), the “kcat (turnover number)” value was found to be 296 ± 1 S^−1. The EC50 at Canton G6PD (read-out: EC50 of activation of Canton G6PD) is roughly 3 µM. Besides, the “stability of Canton G6PD” value in assay [1] was “increased”. In addition, the “increase of viability of SH-SY5Y cells” value in the assay on SH-SY5Y cells (1 μM of AG1) came to 20%. Also, the “effect on viability of SH-SY5Y cells” value with SH-SY5Y cells (G6PD knocked down by siRNA) is listed as “no effect”.
